This note sets out measurements from patent US10076578B2, “Probes for imaging of hypoxia” (Vanderbilt University, priority 2014, dated 2018).

Structures can show the parent of a compound that is named as a salt.

For data set [1], the system named is R28 cells. As to the kind of experiment: BrdU cell proliferation assay (in vitro toxicity). In kind it is cell-based, rat. To be noted: up to 100 μM, 24 h. As to the method: FIG. 3A-3B. […] (n=4), p<0.01.
For in vitro toxicity studies, a BrdU cell proliferation assay was performed on R28 cells. The assay was performed according to the manufacturer's protocol with the following specifications. Cells were seeded at 2000 cells/well in a 96-well plate. 24 h after seeding, the cells were serum starved for 6 h. Imaging agents and vehicle controls diluted in complete media were added and allowed to incubate for 24 h. 4 h prior to the end of the incubation, BrdU was added at a concentration of 10 μM.
Both imaging agents were not acutely toxic to retinal cells as assessed by BrdU cell proliferation assays (FIG. 3).

Data set [2] has as its system avascular hypoxic retina of OIR mice. The data set can be described thus: mouse model of oxygen induced retinopathy (OIR), ex vivo imaging of retinal flatmounts. In kind it is in vivo. The source says: FIG. 4A-4F. […] FIGS. 4(A) and 4(C) HYPOX-1 in P13 OIR mouse retina. FIGS. 4(B) and 4(D) Pimonidazole immunostaining colocalizes with HYPOX-1 region. […] FIG. 5. Retinal flatmounts from OIR mice intravenously injected with HYPOX-1 (green) were stained with endothelial cell marker, ICAM-2 (red). Accumulation of HYPOX-1 is observed in avascular retina. The mouse model of oxygen induced retinopathy (OIR) was selected as a mouse model for hypoxia and generated as published (24). Briefly, litters with 6 to 8 pups were placed into a 75% oxygen chamber with dams from P7-P12. On P12, pups were removed from the hyperoxic environment to room air. Imaging agents, vehicle controls and dye controls were intravitreally injected (3 μg in 1 μL injection volume) or intravenously injected via tail vein (60 mg/kg) 6 h after removal from hyperoxic environment. Pimonidazole hydrochloride (Hypoxyprobe Inc.) was injected intraperitoneally at a concentration of 60 mg/kg body weight. Immunofluorescence analysis of retinal tissues was performed by dissecting retinas from ocular tissues and fixing them in 10% neutral buffered formalin for 2 h. Tissues were then rinsed in Tris buffered saline and blocked/permeabilized in 10% donkey serum with 1% Triton X-100/0.05% Tween 20 in TBS for 6 h. Retinas were then stained for ICAM-2 and Hypoxyprobe followed by secondary antibody staining as indicated. […] Staining of excised retinas with ICAM-2 was used to identify retinal vasculature and its association with HYPOX staining. […] In addition, HYPOX accumulation in retinal tissue can be accomplished through intraocular or intravenous injection routes.

For data set [3], the system named is primary human Müller cells. The data set can be described thus: in vitro imaging agent uptake assay (microplate fluorescence spectrophotometric assay). The data set is classed as cell-based. To be noted: for increase in hypoxic/normoxic fluorescence intensity ratio: 100 μM; for increase in hypoxic/normoxic fluorescence intensity ratio / dose dependence of fluorescence in hypoxic cells: 12 h hypoxia; for dose dependence of fluorescence in hypoxic cells: Müller cells, n=8. On the procedure: (§1) Primary human Müller cells and R28 cell line were grown in low glucose DMEM supplemented with 10% Fetal Bovine Serum, 1× GlutaMAX, and 1× Penicillin-Streptomycin. All cells were maintained in a humidified environment with 5% CO2 at 37° C. unless otherwise noted. For hypoxia induction, assay plates were placed into a humidified chamber and ambient air was displaced with a mixture of 5% CO2 and 95% N2 at a flow rate of 20 L/min for 5 min according to manufacturer instructions and published methods (28). The chamber was clamped and placed at 37° C. for the remainder of the time point. R28 cells were treated with 100 μM pimonidazole hydrochloride diluted in complete media and subjected to hypoxia or normoxia for 4 h.
(§2) To perform in vitro imaging agent uptake assays, R28 cells or primary human Müller cells were seeded at a density of 15,000 cells per well in a 96-well black plate with clear bottom. When 90% confluent, assay plates were either place in hypoxia or kept in normoxia for 12 h. They were treated with imaging agents diluted in complete media and returned to hypoxia or kept in normoxia for 30 min. They were washed 4 times with pre-warmed Hank's Buffered Salt Solution (HBSS), kept in normoxia for 1 h, then washed 4 more times in HBSS. Fluorescence intensity was read ([…]: 490 nm, Emission: 520 nm) using a Synergy Mx Plate Reader from Biotek.
(§3) In order to measure the specificity of HYPOX-1 and HYPOX-2 for hypoxic retinal tissues in vitro, R28 rat retinal neuronal (17, 18) or primary human Müller cells (19) were conditioned in a hypoxic chamber purged with a mixture of nitrogen/carbon dioxide up to 12 h. These two cell lines model predominant oxygen-sensitive cell types in retinal diseases with a hypoxia-ischemia component (20). […] The micromolar doses of HYPOX-1 and HYPOX-2 used in these experiments are modeled on doses used to achieve optimal signal to background ratios using pimonidazole immunohistochemistry (21).

The test system of data set [4] is R28 rat retinal neuronal cells. Described as above. To be noted: for dose dependence of fluorescence in hypoxic cells: 12 h hypoxia, n=8. In kind it is cell-based. On the procedure: as §1, §2, §3
The subject of data set [5] is Human Retinal Microvascular Endothelial Cells (HRMEC). As to the kind of experiment: Western analysis of cell lysates with anti-Hypoxyprobe antibody. In kind it is cell-based. To be noted: 100 μM, 4 h, hypoxic vs normoxic HRMEC. As to the method: FIG. 2G. HYPOX-1 accumulation in hypoxic retinal cells occur through nitroimidazole adduct formation. Human Retinal Microvascular Endothelial Cells (HRMEC) were treated with 100 μM HYPOX-1 under normoxic or hypoxic conditions for 4 h. Cell lysates were probed with an anti-Hypoxyprobe antibody by Western analysis.
(§4) Imaging of R28 cells incubated with the hypoxia-sensitive imaging agents further confirmed specificity and mechanism of action.

The test system of data set [6] is R28 cells. The data set can be described thus: immunofluorescence imaging of cells incubated with imaging agent. In kind it is cell-based, rat. To be noted: 100 μM, 4 h. On the procedure:
FIG. 2A-2F. R28 retinal neuronal cell lines conditioned under normoxic or hypoxic (4 h) conditions were incubated with 100 μM HYPOX-2 followed by fixation and immunostaining with an antibody specific for pimonidazole adducts in hypoxic cells.
Immunofluorescence analysis of cells was performed by seeding R28 cells at a density of 15,000 cells per well of 8-well chamber slides. When 90% confluent, cells were treated with either imaging agent and pimonidazole hydrochloride or imaging agent only, diluted in complete media, and placed in hypoxia or normoxia for 4 h. Cells were washed 4 times in HBSS, fixed for 10 min with 10% neutral buffered formalin at room temperature, washed 3 times with tris buffered saline and mounted with Prolong Gold with DAPI mounting media.
as §4

The test system of data set [7] is R28 cells. The data set can be described thus: Hypoxyprobe adduct immunostaining of normoxia- or hypoxia-conditioned cells. The data set is classed as cell-based, rat. To be noted: 100 μM. On the procedure: as §1, with “FIG. 1A. R28 cells were treated with 100 μM pimonidazole hydrochloride (Hypoxyprobe) and subjected to normoxia or hypoxia-conditioning for 4 h, followed by Hypoxyprobe adduct immunostaining. […] Primary” for “Primary”, “h. In order to measure the specificity of HYPOX-1 and HYPOX-2 for hypoxic retinal tissues in vitro, R28 rat retinal neuronal (17, 18) or primary human Müller cells (19) were conditioned in a hypoxic chamber purged with a mixture of nitrogen/carbon dioxide up to 12 h. These two cell lines model predominant oxygen-sensitive cell types in retinal diseases with a hypoxia-ischemia component (20). […]” for “h.”

With `O=C1OC2(c3ccc(O)cc3Oc3cc(O)ccc32)c2ccc(NC(=S)NCCCCCn3ccnc3[N+](=O)[O-])cc21` [HYPOX-1], the “cell proliferation (BrdU incorporation)” value in data set [1] was “no significant decrease in cell proliferation”. In addition, the “accumulation in retina, intraocularly injected” value in data set [2] (OIR mice P13, intravitreal 3 μg, retinal flatmounts) was “accumulation of intraocularly-injected HYPOX-1 in central avascular retinas”. Besides, the “accumulation in retina, intravenously injected” value in data set [2] (OIR mice, tail vein 60 mg/kg, ICAM-2 co-staining) was “accumulated in avascular regions”. In addition, the “accumulation in retina of age matched control mice” value in data set [2] (room air control mice with fully vascularized retinas) is on record as “did not accumulate”. In addition, in data set [3] (human Müller cells), the “increase in hypoxic/normoxic fluorescence intensity ratio” value is given as 5 fold and the “fluorescence intensity of hypoxia-conditioned vs normoxia-conditioned cells” value was “significantly higher fluorescence intensity”. In addition, the “dose dependence of fluorescence in hypoxic cells” value (shortened to “dose dependence of fluorescence”) in data set [3] was “dose-dependent fluorescence enhancement”. The detectability of probe result in data set [3] (concentrations lower than 50 μM) was “not detectable”. Besides, in data set [4], the “fluorescence intensity of hypoxia-conditioned vs normoxia-conditioned cells” value is given as “significantly higher fluorescence intensity” and the “dose dependence of fluorescence” value is “dose-dependent fluorescence enhancement”. Further, the “nitroimidazole adduct formation (Western)” value in data set [5] is recorded as “Adduct formation was increased in hypoxic cells”.

As for `O=C1OC2(c3ccc(O)cc3Oc3cc(O)ccc32)c2ccc(NC(=S)NCC3CCN(CC(O)Cn4ccnc4[N+](=O)[O-])CC3)cc21` (stereo not drawn) [HYPOX-2], in data set [1], the “cell proliferation (BrdU incorporation)” value is listed as “no significant decrease in cell proliferation”. In addition, the “greater fluorescence intensity in hypoxia-conditioned cells” value in data set [3] (10 μM, human Müller cells) was 32 fold. Also, in data set [3] (human Müller cells), the “increase in hypoxic/normoxic fluorescence intensity ratio” value was determined as 11 fold and the “fluorescence intensity of hypoxia-conditioned vs normoxia-conditioned cells” value is on record as “significantly higher fluorescence intensity”. The “dose dependence of fluorescence” value in data set [3] is recorded as “dose-dependent fluorescence enhancement”. Also, in data set [4], the “fluorescence intensity of hypoxia-conditioned vs normoxia-conditioned cells” value is given as “significantly higher fluorescence intensity” and the “dose dependence of fluorescence” value is on record as “dose-dependent fluorescence enhancement”. Also, the “pimonidazole adducts by adduct-specific antibody” value in data set [6] (hypoxic R28 cells, but not normoxic cells) is on record as “positive for pimonidazole adducts”. Moreover, the “accumulation in cells (fluorescence imaging)” value in data set [6] (hypoxic vs normoxic R28 cells) was “accumulated in hypoxic cells but not normoxic cells”.

Take `O=[N+]([O-])c1nccn1CC(O)CN1CCCCC1` (stereo not drawn) [pimonidazole hydrochloride, reference compound]: the “Hypoxyprobe adduct immunostaining, hypoxia-conditioned cells” value in data set [7] (4 h hypoxia) is on record as “positive staining”. Moreover, in data set [7] (4 h normoxia), the “Hypoxyprobe adduct immunostaining, normoxia-conditioned cells” value is given as “minimal fluorescence”. Moreover, the “Hypoxyprobe immunostaining of central avascular retina” value in data set [2] (OIR mice, intraperitoneal 60 mg/kg) is given as “positive immunostaining”. For the same compound, the “accumulation in retina of room air mice (Hypoxyprobe staining)” value in data set [2] (room air mice) is recorded as “no pimonidazole accumulation”.
